Assay [1] has as its system Human acute T lymphocytic leukemia cells (Molt-4). Briefly: Tumor cell proliferation inhibition (CellTiter-Meiluncell Luminescent Cell Viability Assay), Molt-4. Conditions: MOLT-4, read-out: inhibitory activity (IC50, nM) against tumor cells proliferation, Molt-4.
Method: (§1) The tumor cells used herein were cultured in a cell culture medium listed in table 2 at 37°C in an incubator with 5% CO2. Prior to experimentation, all cell lines used were correctly identified by STR profiling, and tested negative for mycoplasma contamination using a mycoplasma detection kit through routine screenings.
On the following day, the test compounds of the present disclosure were subjected to serial dilution. […] Subsequently, 0.5 µL of the test compound dilution was transferred into the 96-well plate containing the cells, with each well containing 100 µL of cell culture medium. […] Into the 96-well plate, the diluted test compounds and corresponding detection reagents were added, resulting in final test compound concentrations of 500 nM and 10 nM, respectively. The experimental procedure is described below using the diluted 2 µM test compound as an example.
(§2) After the cells were treated with the compounds of the present disclosure for a specified period (the treatment durations were shown in Table 3), the cell viability assay reagent was added to the culture medium according to the kit's instructions to determine cell viability. […] All controls were treated using the same procedure as the compounds of the present disclosure. The growth inhibition curves for the compounds of the present disclosure were plotted using Prism GraphPad software, and the IC50 values were calculated therefrom.
The target of a further assay is T1, WEE1 (Homo sapiens, UniProt P30291+Q96SW2).
T1 construct: endogenous in cells; host or cells: hPBMCs (Milecell Biotechnologies)
Briefly: Western-blot assay of substrate protein degradation in hPBMCs, WEE1. The conditions noted are these: 24 hours of compound treatment, 50 nM and 500 nM tested (concentration behind the class not stated). It counts as cell-based.

Another assay addresses T2, IKZF1 (Homo sapiens, UniProt Q13422+Q96SW2).
T2 construct: endogenous in cells; host or cells: hPBMCs (Milecell Biotechnologies)
Briefly: Western-blot assay of substrate protein degradation in hPBMCs, IKZF1. It counts as cell-based. The conditions noted are these: 24 hours of compound treatment, 50 nM and 500 nM tested (concentration behind the class not stated).

The next assay has as its target T3, IKZF2 (Homo sapiens, UniProt Q96SW2+Q9UKS7).
T3 construct: endogenous in cells; host or cells: hPBMCs (Milecell Biotechnologies)
In words: Western-blot assay of substrate protein degradation in hPBMCs, IKZF2. It counts as cell-based. The conditions noted are these: 24 hours of compound treatment, 50 nM and 500 nM tested (concentration behind the class not stated).

In another assay the target is T4, CK1α (Homo sapiens, UniProt P48729+Q96SW2).
T4 construct: endogenous in cells; host or cells: hPBMCs (Milecell Biotechnologies)
In words: Western-blot assay of substrate protein degradation in hPBMCs, CK1α. It counts as cell-based. Conditions: 24 hours of compound treatment, 50 nM and 500 nM tested (concentration behind the class not stated).

The target of a further assay is T5, IKZF3 (Homo sapiens, UniProt Q96SW2+Q9UKT9).
T5 construct: endogenous in cells; host or cells: hPBMCs (Milecell Biotechnologies)
In words: Western-blot assay of substrate protein degradation in hPBMCs, IKZF3. It counts as cell-based. The conditions noted are these: 24 hours of compound treatment, 50 nM and 500 nM tested (concentration behind the class not stated).

In another assay the test system is CCRF-CEM. In words: Tumor cell proliferation inhibition (CellTiter-Meiluncell Luminescent Cell Viability Assay), CCRF-CEM. Conditions: Homo sapiens, read-out: inhibitory activity (IC50, nM) against tumor cells proliferation, CCRF-CEM.
A further assay relates to MM.1S. Briefly: Tumor cell proliferation inhibition (CellTiter-Meiluncell Luminescent Cell Viability Assay), MM.1S. Conditions: Homo sapiens, MM1.S, read-out: inhibitory activity (IC50, nM) against tumor cells proliferation, MM.1S.
In another assay the test system is MV-4-11. In words: Tumor cell proliferation inhibition (CellTiter-Meiluncell Luminescent Cell Viability Assay), MV-4-11. The conditions noted are these: Homo sapiens, MV4-11, read-out: inhibitory activity (IC50, nM) against tumor cells proliferation, MV-4-11.
In assay [2] the target is T6, human Cereblon WT GST-tagged protein (Homo sapiens, UniProt Q96SW2).
T6 construct: purchased CISBIO 64BDCRBNPEH
Briefly: CRBN-binding affinity by HTRF (CEREBLON BINDING kit). Conditions: HTRF inhibitory activity, CEREBLON BINDING kit; read-out: HTRF IC50.

In another assay the target is T7, GSPT1 (Homo sapiens, UniProt P15170+Q96SW2).
T7 construct: endogenous in cells; host or cells: hPBMCs (Milecell Biotechnologies)
Briefly: Western-blot assay of substrate protein degradation in hPBMCs, GSPT1. It counts as cell-based. The conditions noted are these: 24 hours of compound treatment, 50 nM and 500 nM tested (concentration behind the class not stated).

The next assay deals with Jurkat. Briefly: Tumor cell proliferation inhibition (CellTiter-Meiluncell Luminescent Cell Viability Assay), Jurkat. Conditions: Homo sapiens, read-out: inhibitory activity (IC50, nM) against tumor cells proliferation, Jurkat.
For the next assay, the system named is NCI-H1975. Briefly: Tumor cell proliferation inhibition (CellTiter-Meiluncell Luminescent Cell Viability Assay), NCI-H1975. The conditions noted are these: Homo sapiens, NCI-H1975, read-out: inhibitory activity (IC50, nM) against tumor cells proliferation, H1975.

pIC50: −log10 of the molar value.

T1 sequence (P30291 whole entry): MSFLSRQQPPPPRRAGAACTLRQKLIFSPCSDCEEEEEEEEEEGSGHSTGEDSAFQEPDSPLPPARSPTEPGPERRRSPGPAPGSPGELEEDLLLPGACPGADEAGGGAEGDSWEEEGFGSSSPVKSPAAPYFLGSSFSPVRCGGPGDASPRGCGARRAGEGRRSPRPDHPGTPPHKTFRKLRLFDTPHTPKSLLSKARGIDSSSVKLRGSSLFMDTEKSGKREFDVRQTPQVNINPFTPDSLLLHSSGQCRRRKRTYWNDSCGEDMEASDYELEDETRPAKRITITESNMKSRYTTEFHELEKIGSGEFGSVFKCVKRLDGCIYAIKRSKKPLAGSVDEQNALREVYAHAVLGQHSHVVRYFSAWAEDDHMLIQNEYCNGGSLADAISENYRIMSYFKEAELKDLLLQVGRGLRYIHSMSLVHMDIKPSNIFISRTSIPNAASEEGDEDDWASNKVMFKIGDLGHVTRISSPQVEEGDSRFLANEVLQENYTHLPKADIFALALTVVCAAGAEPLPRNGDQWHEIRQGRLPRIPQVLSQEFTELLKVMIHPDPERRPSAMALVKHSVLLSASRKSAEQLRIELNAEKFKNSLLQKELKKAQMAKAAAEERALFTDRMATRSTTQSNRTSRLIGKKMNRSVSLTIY
T1 sequence (Q96SW2 whole entry): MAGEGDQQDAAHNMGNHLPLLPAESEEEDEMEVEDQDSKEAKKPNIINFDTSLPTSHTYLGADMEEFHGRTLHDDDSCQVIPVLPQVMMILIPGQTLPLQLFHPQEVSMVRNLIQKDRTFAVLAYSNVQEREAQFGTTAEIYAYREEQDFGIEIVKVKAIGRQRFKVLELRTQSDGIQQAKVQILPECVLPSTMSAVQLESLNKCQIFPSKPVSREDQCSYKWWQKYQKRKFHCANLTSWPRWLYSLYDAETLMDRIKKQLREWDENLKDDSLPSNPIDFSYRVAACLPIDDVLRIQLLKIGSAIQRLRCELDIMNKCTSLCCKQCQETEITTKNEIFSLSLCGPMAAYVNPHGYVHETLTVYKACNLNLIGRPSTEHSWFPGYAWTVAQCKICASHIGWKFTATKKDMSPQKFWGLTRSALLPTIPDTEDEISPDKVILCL
T1 sequence (Q16531 whole entry partner): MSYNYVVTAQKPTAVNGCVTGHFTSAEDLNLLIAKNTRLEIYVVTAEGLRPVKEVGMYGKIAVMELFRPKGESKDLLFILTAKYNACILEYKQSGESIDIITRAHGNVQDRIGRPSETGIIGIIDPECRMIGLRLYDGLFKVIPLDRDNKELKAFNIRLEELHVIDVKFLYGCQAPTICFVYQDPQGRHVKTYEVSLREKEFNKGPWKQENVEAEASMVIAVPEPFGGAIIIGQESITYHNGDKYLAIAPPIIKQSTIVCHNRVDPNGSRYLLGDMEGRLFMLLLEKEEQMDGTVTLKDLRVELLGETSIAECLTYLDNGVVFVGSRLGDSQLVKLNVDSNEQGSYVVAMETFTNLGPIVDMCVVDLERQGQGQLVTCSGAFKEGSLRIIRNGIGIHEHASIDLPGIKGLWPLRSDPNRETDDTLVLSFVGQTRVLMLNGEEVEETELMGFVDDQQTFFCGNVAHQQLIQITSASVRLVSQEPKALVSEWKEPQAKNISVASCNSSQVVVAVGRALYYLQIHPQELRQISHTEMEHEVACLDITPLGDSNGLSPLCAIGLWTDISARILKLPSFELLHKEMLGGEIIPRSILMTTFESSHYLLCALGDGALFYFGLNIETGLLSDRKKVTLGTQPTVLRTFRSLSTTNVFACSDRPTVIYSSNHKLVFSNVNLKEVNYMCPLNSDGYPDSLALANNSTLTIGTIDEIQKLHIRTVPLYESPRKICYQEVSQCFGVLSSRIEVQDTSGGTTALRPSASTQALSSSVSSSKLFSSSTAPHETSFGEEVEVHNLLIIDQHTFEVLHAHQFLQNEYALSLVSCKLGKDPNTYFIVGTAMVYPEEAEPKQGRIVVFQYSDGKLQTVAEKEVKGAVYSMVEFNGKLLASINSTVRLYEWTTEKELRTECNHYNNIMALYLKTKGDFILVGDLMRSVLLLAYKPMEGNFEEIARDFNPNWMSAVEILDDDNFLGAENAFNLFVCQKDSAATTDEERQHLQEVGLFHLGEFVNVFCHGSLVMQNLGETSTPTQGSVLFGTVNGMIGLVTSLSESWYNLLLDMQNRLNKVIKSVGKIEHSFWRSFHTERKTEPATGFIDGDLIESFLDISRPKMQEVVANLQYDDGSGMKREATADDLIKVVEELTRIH
T4 sequence (P48729 whole entry): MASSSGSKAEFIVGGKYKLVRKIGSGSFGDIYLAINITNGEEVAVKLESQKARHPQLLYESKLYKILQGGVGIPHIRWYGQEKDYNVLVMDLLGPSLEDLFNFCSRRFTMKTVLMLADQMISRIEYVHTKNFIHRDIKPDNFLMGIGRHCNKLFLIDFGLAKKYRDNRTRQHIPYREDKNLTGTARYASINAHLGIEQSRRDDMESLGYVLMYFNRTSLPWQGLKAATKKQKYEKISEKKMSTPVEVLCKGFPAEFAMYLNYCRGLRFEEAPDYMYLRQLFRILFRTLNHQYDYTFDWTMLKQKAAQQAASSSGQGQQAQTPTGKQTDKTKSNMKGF
T4 sequence (Q96SW2 whole entry): as the sequence (Q96SW2 whole entry) above
T4 sequence (Q16531 whole entry partner): as the sequence (Q16531 whole entry partner) above
T5 sequence (Q9UKT9 whole entry): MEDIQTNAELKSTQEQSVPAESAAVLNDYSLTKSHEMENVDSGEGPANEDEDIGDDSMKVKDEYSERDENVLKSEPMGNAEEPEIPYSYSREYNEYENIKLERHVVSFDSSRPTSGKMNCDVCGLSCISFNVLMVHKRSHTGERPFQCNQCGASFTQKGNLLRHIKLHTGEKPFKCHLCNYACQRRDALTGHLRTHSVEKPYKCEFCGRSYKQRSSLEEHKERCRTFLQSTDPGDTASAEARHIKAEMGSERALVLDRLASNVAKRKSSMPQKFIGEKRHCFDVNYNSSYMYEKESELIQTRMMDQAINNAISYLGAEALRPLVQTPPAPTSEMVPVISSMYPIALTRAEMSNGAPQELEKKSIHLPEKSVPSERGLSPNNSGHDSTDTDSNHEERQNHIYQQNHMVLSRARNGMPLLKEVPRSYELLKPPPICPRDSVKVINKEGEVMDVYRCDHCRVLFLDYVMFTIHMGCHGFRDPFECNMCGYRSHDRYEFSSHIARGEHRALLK
T5 sequence (Q96SW2 whole entry): as the sequence (Q96SW2 whole entry) above
T5 sequence (Q16531 whole entry partner): as the sequence (Q16531 whole entry partner) above
T7 sequence (P15170 whole entry): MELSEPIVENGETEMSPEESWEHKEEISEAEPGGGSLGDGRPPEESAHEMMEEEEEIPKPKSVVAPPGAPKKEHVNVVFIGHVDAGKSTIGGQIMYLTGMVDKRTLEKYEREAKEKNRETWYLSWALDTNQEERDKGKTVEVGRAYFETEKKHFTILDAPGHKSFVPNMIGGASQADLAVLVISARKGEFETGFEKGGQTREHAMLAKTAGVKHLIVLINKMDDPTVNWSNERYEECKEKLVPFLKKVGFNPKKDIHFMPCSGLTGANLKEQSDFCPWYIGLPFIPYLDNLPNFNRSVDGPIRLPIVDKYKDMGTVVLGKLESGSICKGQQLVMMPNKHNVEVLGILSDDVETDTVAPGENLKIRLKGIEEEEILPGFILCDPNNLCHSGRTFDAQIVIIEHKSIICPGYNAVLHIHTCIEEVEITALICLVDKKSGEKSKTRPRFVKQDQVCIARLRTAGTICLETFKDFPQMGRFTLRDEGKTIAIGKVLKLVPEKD
T7 sequence (Q96SW2 whole entry): as the sequence (Q96SW2 whole entry) above
T7 sequence (Q16531 whole entry partner): as the sequence (Q16531 whole entry partner) above
T3 sequence (Q9UKS7 whole entry): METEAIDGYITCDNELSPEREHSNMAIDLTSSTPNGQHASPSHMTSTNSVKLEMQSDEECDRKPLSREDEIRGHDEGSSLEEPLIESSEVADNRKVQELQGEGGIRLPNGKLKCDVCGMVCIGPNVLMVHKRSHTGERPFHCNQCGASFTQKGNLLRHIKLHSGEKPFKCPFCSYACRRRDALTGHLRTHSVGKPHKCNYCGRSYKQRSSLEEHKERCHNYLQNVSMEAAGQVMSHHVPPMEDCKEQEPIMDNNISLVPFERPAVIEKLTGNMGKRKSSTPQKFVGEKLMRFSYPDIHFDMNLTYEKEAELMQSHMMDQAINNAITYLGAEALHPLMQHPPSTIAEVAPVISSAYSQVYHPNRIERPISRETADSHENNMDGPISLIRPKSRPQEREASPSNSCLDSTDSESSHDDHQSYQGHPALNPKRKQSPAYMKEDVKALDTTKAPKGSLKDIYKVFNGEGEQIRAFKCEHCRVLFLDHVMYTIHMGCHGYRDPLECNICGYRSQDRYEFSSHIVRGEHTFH
T3 sequence (Q96SW2 whole entry): as the sequence (Q96SW2 whole entry) above
T3 sequence (Q16531 whole entry partner): as the sequence (Q16531 whole entry partner) above
T6 sequence (Q96SW2 whole entry): as the sequence (Q96SW2 whole entry) above
Method for MM.1S: as §1
On the following day, the test compounds of the present disclosure were subjected to serial dilution. […] Subsequently, 0.5 µL of the test compound dilution was transferred into the 96-well plate containing the cells, with each well containing 100 µL of cell culture medium. […] Into the 96-well plate, the diluted test compounds and corresponding detection reagents were added, resulting in final test compound concentrations of 500 nM and 10 nM, respectively.
as §2

Consider `O=C1CCC(N2C(=O)c3ccc(CN4CC=C(c5ncnc6sc7c(c56)CCCC7)CC4)cc3C2=O)C(=O)N1` (stereo not shown) [GT-06680, 2-(2,6-dioxopiperidin-3-yl)-5-((4-(5,6,7,8-tetrahydrobenzo[4,5]thieno[2,3-d]pyrimidin-4-yl)-3,6-dihydropyridin-1(2H)-yl)methyl)isoindoline-1,3-dione], for which the IC50 was in the range of 100 to 500 nM in assay [1], 100 to 500 nM with CCRF-CEM, 100 to 500 nM in the assay on MM.1S and 10 to 50 nM in the assay on MV-4-11. Also, the “Weel substrate protein remaining %” value at WEE1 is recorded as “A (0% ≤ substrate protein remaining % ≤ 80%)”. In addition, on IKZF1, the “IKZF 1 substrate protein remaining %” value was “A (0% ≤ substrate protein remaining % ≤ 80%)”. Besides, the “IKZF2 substrate protein remaining %” value at IKZF2 is “A (0% ≤ substrate protein remaining % ≤ 80%)”. Further, the “CK1a substrate protein remaining %” value on CK1α is “B (80%< substrate protein remaining %≤ 100%)”. On IKZF3, the “IKZF3 substrate protein remaining %” value is recorded as “A (0% ≤ substrate protein remaining % ≤ 80%)”. The negative logarithm of the IC50 (pIC50) in assay [2] is 5.72 to 5.82. Moreover, the “GSPT1 substrate protein remaining %” value on GSPT1 was “A (0% ≤ substrate protein remaining % ≤ 80%)”.

Take `CC(C)c1cc2c(C3=CCN(Cc4ccc5c(c4)C(=O)N(C4CCC(=O)NC4=O)C5=O)CC3)ncnc2s1` (stereo not shown) [GT-06656, 2-(2,6-dioxopiperidin-3-yl)-5-((4-(6-isopropylthieno[2,3-d]pyrimidin-4-yl)-3,6-dihydropyridin-1(2H)-yl)methyl)isoindoline-1,3-dione]: the IC50 in [1] fell in the range of 10 to 50 nM; in the assay on Jurkat it was 50 to 100 nM; in the assay on CCRF-CEM it was 10 to 50 nM; in the assay on MM.1S, 100 to 500 nM; with MV-4-11, 10 to 50 nM. Besides, the “Weel substrate protein remaining %” value on WEE1 is “A (0% ≤ substrate protein remaining % ≤ 80%)”. For the same compound, on IKZF1, the “IKZF 1 substrate protein remaining %” value is “A (0% ≤ substrate protein remaining % ≤ 80%)”. Further, on IKZF2, the “IKZF2 substrate protein remaining %” value is on record as “A (0% ≤ substrate protein remaining % ≤ 80%)”. In addition, on CK1α, the “CK1a substrate protein remaining %” value was “B (80%< substrate protein remaining %≤ 100%)”. Also, at IKZF3, the “IKZF3 substrate protein remaining %” value is reported as “A (0% ≤ substrate protein remaining % ≤ 80%)”. In addition, the pIC50 in assay [2] was 5.82 to 6.00. In addition, the “GSPT1 substrate protein remaining %” value on GSPT1 is given as “A (0% ≤ substrate protein remaining % ≤ 80%)”.

In the case of `O=C1CCC(N2C(=O)c3ccc(CN4CC=C(c5nccc(Cl)c5Cl)CC4)cc3C2=O)C(=O)N1` (stereo not shown) [GT-06608, 5-((3,4-dichloro-3',6'-dihydro-[2,4'-bipyridin]-1'(2'H)-yl)methyl)-2-(2,6-dioxopiperidin-3-yl)isoindoline-1,3-dione], the IC50 in assay [1] lay in the range of 100 to 500 nM; in the assay on Jurkat, 100 to 500 nM; with CCRF-CEM it was 100 to 500 nM; in the assay on MM.1S it was 100 to 500 nM; in the assay on MV-4-11 it was 10 to 50 nM. Further, the “Weel substrate protein remaining %” value on WEE1 is given as “B (80%< substrate protein remaining %≤ 100%)”. Moreover, the “IKZF 1 substrate protein remaining %” value at IKZF1 is recorded as “B (80%< substrate protein remaining %≤ 100%)”. On IKZF2, the “IKZF2 substrate protein remaining %” value was “B (80%< substrate protein remaining %≤ 100%)”. Also, the “CK1a substrate protein remaining %” value at CK1α is on record as “B (80%< substrate protein remaining %≤ 100%)”. The “IKZF3 substrate protein remaining %” value at IKZF3 is “B (80%< substrate protein remaining %≤ 100%)”. The pIC50 in assay [2] is 5.82 to 6.00. Also, the “GSPT1 substrate protein remaining %” value on GSPT1 is “A (0% ≤ substrate protein remaining % ≤ 80%)”.

Take `O=C1CCC(N2C(=O)c3ccc(CN4CCN(c5n[nH]c6cc(F)ccc56)CC4)cc3C2=O)C(=O)N1` (stereo not shown) [GT-06632, 2-(2,6-dioxopiperidin-3-yl)-5-((4-(6-fluoro-1H-indazol-3-yl)piperazin-1-yl)methyl)isoindoline-1,3-dione]: the IC50 lay within 100 to 500 nM in assay [1]; 100 to 500 nM in the assay with Jurkat; 50 to 100 nM with CCRF-CEM; 500 to 1000 nM in the assay on MM.1S; 10 to 50 nM in the assay on MV-4-11. The “Weel substrate protein remaining %” value at WEE1 is listed as “A (0% ≤ substrate protein remaining % ≤ 80%)”. Also, at IKZF1, the “IKZF 1 substrate protein remaining %” value was “A (0% ≤ substrate protein remaining % ≤ 80%)”. On IKZF2, the “IKZF2 substrate protein remaining %” value is listed as “A (0% ≤ substrate protein remaining % ≤ 80%)”. Also, at CK1α, the “CK1a substrate protein remaining %” value was “A (0% ≤ substrate protein remaining % ≤ 80%)”. Further, the “IKZF3 substrate protein remaining %” value on IKZF3 is recorded as “A (0% ≤ substrate protein remaining % ≤ 80%)”. The negative-log IC50 (pIC50) in assay [2] was 5.72 to 5.82. On GSPT1, the “GSPT1 substrate protein remaining %” value is recorded as “A (0% ≤ substrate protein remaining % ≤ 80%)”.

Consider `Cn1cc(C2=CCN(Cc3ccc4c(c3)C(=O)N(C3CCC(=O)NC3=O)C4=O)CC2)c2ccc(F)cc21` (stereo not shown) [GT-06636, 2-(2,6-dioxopiperidin-3-yl)-5-((4-(6-fluoro-1-methyl-1H-indol-3-yl)-3,6-dihydropyridin-1(2H)-yl)methyl)isoindoline-1,3-dione], for which the IC50 in assay [1] lay in the range of 10 to 50 nM; with Jurkat, 50 to 100 nM; in the assay with CCRF-CEM it was 10 to 50 nM; with MM.1S, 100 to 500 nM; in the assay with MV-4-11, 10 to 50 nM; with NCI-H1975, 500 to 1000 nM. On WEE1, the “Weel substrate protein remaining %” value is “A (0% ≤ substrate protein remaining % ≤ 80%)”. Further, the “IKZF 1 substrate protein remaining %” value at IKZF1 is on record as “A (0% ≤ substrate protein remaining % ≤ 80%)”. Besides, on IKZF2, the “IKZF2 substrate protein remaining %” value is recorded as “A (0% ≤ substrate protein remaining % ≤ 80%)”. Moreover, on CK1α, the “CK1a substrate protein remaining %” value is listed as “A (0% ≤ substrate protein remaining % ≤ 80%)”. Also, at IKZF3, the “IKZF3 substrate protein remaining %” value was “A (0% ≤ substrate protein remaining % ≤ 80%)”. Also, the pIC50 in assay [2] was 5.82 to 6.00. Further, the “GSPT1 substrate protein remaining %” value on GSPT1 was “A (0% ≤ substrate protein remaining % ≤ 80%)”.

As for `Cn1cc(C2CCN(Cc3ccc4c(c3)C(=O)N(C3CCC(=O)NC3=O)C4=O)CC2)c2ccc(F)cc21` (stereo not shown) [GT-06635, 2-(2,6-dioxopiperidin-3-yl)-5-((4-(6-fluoro-1-methyl-1H-indol-3-yl)piperidin-1-yl)methyl)isoindoline-1,3-dione], the IC50 in assay [1] is 50 to 100 nM; with Jurkat it was 100 to 500 nM; with CCRF-CEM it was 50 to 100 nM; with MM.1S, 100 to 500 nM; in the assay with MV-4-11, 10 to 50 nM. Further, the “Weel substrate protein remaining %” value on WEE1 was “A (0% ≤ substrate protein remaining % ≤ 80%)”. Moreover, the “IKZF 1 substrate protein remaining %” value at IKZF1 is on record as “A (0% ≤ substrate protein remaining % ≤ 80%)”. Besides, the “IKZF2 substrate protein remaining %” value on IKZF2 is recorded as “A (0% ≤ substrate protein remaining % ≤ 80%)”. On CK1α, the “CK1a substrate protein remaining %” value is on record as “A (0% ≤ substrate protein remaining % ≤ 80%)”. Besides, the “IKZF3 substrate protein remaining %” value on IKZF3 is given as “A (0% ≤ substrate protein remaining % ≤ 80%)”. Further, at GSPT1, the “GSPT1 substrate protein remaining %” value is listed as “A (0% ≤ substrate protein remaining % ≤ 80%)”.

Regarding `O=C1CCC(N2C(=O)c3ccc(CN4CCC(c5c[nH]c6cc(F)ccc56)CC4)cc3C2=O)C(=O)N1` (stereo not shown) [GT-06633, 2-(2,6-dioxopiperidin-3-yl)-5-((4-(6-fluoro-1H-indol-3-yl)piperidin-1-yl)methyl)isoindoline-1,3-dione], the IC50 in [1] is 100 to 500 nM; with Jurkat it was 100 to 500 nM; in the assay with CCRF-CEM it was 100 to 500 nM; in the assay on MM.1S, 100 to 500 nM; in the assay with MV-4-11 it was 50 to 100 nM. Moreover, the “Weel substrate protein remaining %” value at WEE1 is reported as “A (0% ≤ substrate protein remaining % ≤ 80%)”. Also, the “IKZF 1 substrate protein remaining %” value on IKZF1 is given as “A (0% ≤ substrate protein remaining % ≤ 80%)”. Besides, the “IKZF2 substrate protein remaining %” value at IKZF2 was “A (0% ≤ substrate protein remaining % ≤ 80%)”. Also, the “CK1a substrate protein remaining %” value on CK1α was “A (0% ≤ substrate protein remaining % ≤ 80%)”. Moreover, the “IKZF3 substrate protein remaining %” value on IKZF3 is “A (0% ≤ substrate protein remaining % ≤ 80%)”. The “GSPT1 substrate protein remaining %” value at GSPT1 is recorded as “A (0% ≤ substrate protein remaining % ≤ 80%)”.
